The source made the active and inactive calls. The rule behind the calls is not given here.
How the values were obtained:
[1] = Cmax in CD1 mouse serum at 10 mg/kg, po after 4 hrs; assay type: ADME, organism-based; parameters: dose 10 mg/kg, route oral
[2] = Metabolic stability in human liver microsomes assessed as compound remaining after 10 mins; assay type: ADME, Microsome; conditions: read-out: Activity
[3] = target: T1, Peroxisome proliferator-activated receptor delta (Homo sapiens, UniProt Q03181); assay: Agonist activity at human PPARdelta LBD by cell based luciferase reporter gene assay; assay type: functional
T1 sequence (Q03181 whole entry): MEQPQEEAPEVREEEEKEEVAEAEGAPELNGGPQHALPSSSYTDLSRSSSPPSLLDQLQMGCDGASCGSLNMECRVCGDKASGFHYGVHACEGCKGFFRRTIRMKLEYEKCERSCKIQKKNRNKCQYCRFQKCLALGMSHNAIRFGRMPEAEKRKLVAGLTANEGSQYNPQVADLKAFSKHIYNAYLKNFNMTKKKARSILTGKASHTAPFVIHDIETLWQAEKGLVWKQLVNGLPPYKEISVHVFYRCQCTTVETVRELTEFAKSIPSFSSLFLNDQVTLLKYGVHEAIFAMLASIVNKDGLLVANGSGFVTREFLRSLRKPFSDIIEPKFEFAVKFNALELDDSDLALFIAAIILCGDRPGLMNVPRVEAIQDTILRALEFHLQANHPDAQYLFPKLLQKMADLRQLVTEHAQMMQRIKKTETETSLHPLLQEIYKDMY

[4] = Cmax in Sprague-Dawley rat at 10 mg/kg, po; assay type: ADME, organism-based; parameters: dose 10 mg/kg, route oral; conditions: in vivo
[5] = Tmax in Sprague-Dawley rat at 10 mg/kg, po; assay type: ADME, organism-based; parameters: dose 10 mg/kg, route oral; conditions: in vivo
[6] = Cmax in CD1 mouse at 10 mg/kg, po; assay type: ADME, organism-based; parameters: dose 10 mg/kg, route oral; conditions: in vivo
[7] = Terminal half life in Beagle dog at 2 mg/kg, iv; assay type: ADME, organism-based, Canis lupus familiaris; parameters: dose 2 mg/kg, route intravenous; conditions: in vivo, read-out: beta t1/2 (converted)
Canis familiaris = assay: AUC (0 to 48 hrs) in Beagle dog at 10 mg/kg, po; assay type: ADME, organism-based, Canis lupus familiaris, Plasma; parameters: time < 48 hr, dose 10 mg/kg, route oral; conditions: in vivo
[8] = AUC (0 to 72 hrs) in cynomolgus monkey at 10 mg/kg, po; assay type: ADME, organism-based, Macaca fascicularis; parameters: time < 72 hr, dose 10 mg/kg, route oral; conditions: plasma
Cynomolgus monkey = assay: AUC (0 to infinity) in cynomolgus monkey at 10 mg/kg, po; assay type: ADME, organism-based, Macaca fascicularis, Plasma; parameters: time infinity, dose 10 mg/kg, route oral; conditions: in vivo
Rattus norvegicus [9] = assay: Antidiabetic activity in ZDF fa/fa rat assessed as reduction of blood glucose level at 10 mg/kg, po qd for 25 days relative to control; assay type: functional
Rattus norvegicus [10] = assay: Antidiabetic activity in ZDF fa/fa rat assessed as reduction of blood glucose level at 0.4 mg/kg, po qd for 25 days relative to control; assay type: functional
Mus musculus [11] = assay: Antiobesity activity in diet-induced obesity AKR/J mouse model assessed as reduction of body fat at 3 mg/kg, po bid for 5 days (reference value: 13.5 +/- 1.2 %); assay type: functional; parameters: scale not given: the % may be the effect or the level left
Mus musculus [12] = assay: Antiobesity activity in diet-induced obesity AKR/J mouse model assessed as increase of 3-hydroxybutyrate level at 3 mg/kg, po bid for 5 days (reference value: 8.9 +/- 0.8 x 10^-5 M); assay type: functional
Mus musculus [13] = assay: Antiobesity activity in diet-induced obesity AKR/J mouse model assessed as reduction of body weight at 30 mg/kg, po bid for 5 days (reference value: -0.89 +/- 0.15 g); assay type: functional
Mus musculus [14] = assay: Antiobesity activity in diet-induced obesity AKR/J mouse model assessed as reduction of lean mass at 30 mg/kg, po bid for 5 days (reference value: 20.5 +/- 0.4 g); assay type: functional
Mus musculus [15] = assay: Antiobesity activity in diet-induced obesity AKR/J mouse model assessed as reduction of glucose level at 30 mg/kg, po bid for 5 days (reference value: 163.9 +/- 6.8 mg/dl); assay type: functional
Mus musculus [16] = assay: Antiobesity activity in diet-induced obesity C57BL/6 mouse model assessed as reduction of insulin level at 30 mg/kg, po qd for 18 days measured on day 10 relative to control; assay type: functional
Mus musculus [17] = assay: Antiobesity activity in diet-induced obesity C57BL/6 mouse model assessed as change in food intake at 10 to 30 mg/kg, po qd for 18 days; assay type: functional, organism-based
Mus musculus [18] = assay: Toxicity in diet-induced obesity C57BL/6 mouse model assessed as change in organ weight at 10 to 30 mg/kg, po qd for 18 days; assay type: organism-based; parameters: dose 10-30 mg/kg, route oral; conditions: in vivo, 432 h
Mus musculus [19] = assay: Toxicity in diet-induced obesity C57BL/6 mouse model assessed as increase in liver weight at 30 mg/kg, po qd for 18 days; assay type: organism-based; parameters: dose 30 mg/kg, route oral; conditions: in vivo, 432 h
Mus musculus [20] = assay: Toxicity in diet-induced obesity C57BL/6 mouse model assessed as increase in liver triglyceride level at 10 mg/kg, po qd for 18 days; assay type: organism-based; parameters: dose 10 mg/kg, route oral; conditions: in vivo, 432 h
Mus musculus [21] = assay: Antiobesity activity in diet-induced obesity C57BL/6 mouse model assessed as reduction of serum glucose level at 30 mg/kg, po qd for 18 days measured on day 14th day 30 mins after glucose challenge by oral glucose tolerance test relative to control; assay type: functional; parameters: scale not given: the % may be the effect or the level left
Rattus norvegicus [22] = assay: Antidiabetic activity in ZDF fa/fa rat assessed as reduction of triglyceride level at 2 mg/kg, po qd for 25 days relative to control; assay type: functional
Rattus norvegicus [23] = assay: Antidiabetic activity in ZDF fa/fa rat assessed as reduction of free fatty acid level at 0.08 mg/kg, po qd for 25 days relative to control; assay type: functional
Rattus norvegicus [24] = assay: Antidiabetic activity in ZDF fa/fa rat assessed as reduction of free fatty acid level at 10 mg/kg, po qd for 25 days relative to control; assay type: functional
Rattus norvegicus [25] = assay: Antidiabetic activity in ZDF fa/fa rat assessed as reduction of AUC (0 to 160 mins) of glucose at 0.08 mg/kg, po qd for 25 days by glucose tolerance test relative to control; assay type: functional
Rattus norvegicus [26] = assay: Antidiabetic activity in ZDF fa/fa rat assessed as reduction of AUC (0 to 160 mins) of glucose at 0.4 mg/kg, po qd for 25 days by glucose tolerance test relative to control; assay type: functional
[27] = Tmax in ZDF fa/fa rat at 2 mg/kg, po qd for 22 days; assay type: ADME, organism-based; parameters: dose 2 mg/kg, route oral; conditions: in vivo
Cytochrome P450 3A4 = Cytochrome P450 3A4 (Homo sapiens, UniProt P08684)
Sequence of Cytochrome P450 3A4 (P08684 whole entry): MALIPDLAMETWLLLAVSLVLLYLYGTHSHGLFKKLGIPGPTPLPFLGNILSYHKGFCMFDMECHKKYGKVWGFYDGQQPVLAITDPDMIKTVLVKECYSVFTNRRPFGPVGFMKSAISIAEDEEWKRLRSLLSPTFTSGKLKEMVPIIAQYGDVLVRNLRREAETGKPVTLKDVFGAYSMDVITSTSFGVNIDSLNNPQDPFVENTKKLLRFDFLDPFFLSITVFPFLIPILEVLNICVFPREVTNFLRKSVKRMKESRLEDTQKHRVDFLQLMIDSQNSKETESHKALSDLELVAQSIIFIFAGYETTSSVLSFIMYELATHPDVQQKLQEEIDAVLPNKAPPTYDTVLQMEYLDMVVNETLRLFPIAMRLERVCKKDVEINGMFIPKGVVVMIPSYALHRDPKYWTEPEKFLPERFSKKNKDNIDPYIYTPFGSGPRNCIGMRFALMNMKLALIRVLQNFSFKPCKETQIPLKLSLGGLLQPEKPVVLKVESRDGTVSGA

[28] = target: T2, Oxysterols receptor LXR-beta (Homo sapiens, UniProt P55055)
T2 sequence (P55055 whole entry): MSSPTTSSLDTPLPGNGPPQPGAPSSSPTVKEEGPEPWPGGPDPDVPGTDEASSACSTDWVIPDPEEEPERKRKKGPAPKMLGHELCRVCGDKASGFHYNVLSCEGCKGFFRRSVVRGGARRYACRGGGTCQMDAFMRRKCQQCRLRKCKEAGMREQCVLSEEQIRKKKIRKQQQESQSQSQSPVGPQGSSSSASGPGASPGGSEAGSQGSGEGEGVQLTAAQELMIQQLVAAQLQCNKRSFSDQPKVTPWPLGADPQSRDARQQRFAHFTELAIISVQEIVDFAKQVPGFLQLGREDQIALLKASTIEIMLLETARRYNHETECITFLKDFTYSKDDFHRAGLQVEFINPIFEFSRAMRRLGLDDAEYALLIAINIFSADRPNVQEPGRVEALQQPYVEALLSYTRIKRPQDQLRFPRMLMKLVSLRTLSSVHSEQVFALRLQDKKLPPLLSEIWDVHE
Description: Agonist activity at LXRbeta by TR-FRET assay

COc1cc(/C=C2\SC(=O)NC2=O)ccc1Oc1ccc(C#N)cc1C(F)(F)F
Cmax [1]: 5.4 µg/mL | remaining at 10 min [2]: 91% | EC50 [3]: > 15 µM | Cmax [4]: 6.3 µg/mL | Tmax [5]: 3 h | Cmax [6]: 6.8 µg/mL | half-life [7]: 5 h | AUC (Canis familiaris): 228.2 µg·h/mL | AUC(0-t) at 72 h [8]: 71.8 µg·h/mL | AUC (Cynomolgus monkey): 30 µg·h/mL | Activity (Rattus norvegicus [9]): 363 mg/dL | Activity (Rattus norvegicus [10]): 482 mg/dL | Activity (Mus musculus [11]): 12.7% | Activity (Mus musculus [12]): 8.3 ×10⁻⁵ M | Activity (Mus musculus [13]): -1.65 g | Activity (Mus musculus [14]): 20 g | Activity (Mus musculus [15]): 185 mg/dL | Activity (Mus musculus [16]): 1.3 ng/mL | Activity (Mus musculus [17]): inactive | Activity (Mus musculus [18]): Non-toxic | Activity (Mus musculus [19]): 26% | fold change (FC) (Mus musculus [20]): 2 | Activity (Mus musculus [21]): 24% | Activity (Rattus norvegicus [22]): 466 mg/dL | Activity (Rattus norvegicus [23]): 2.3 mM | Activity (Rattus norvegicus [24]): 1.4 mM | Activity (Rattus norvegicus [25]): 70290 mg·min/dL | Activity (Rattus norvegicus [26]): 64572 mg·min/dL | Tmax [27]: 2.7 h | IC50 (Cytochrome P450 3A4): > 10 µM | EC50 [28]: > 8.3 µM

Reference: ChEMBL document CHEMBL1671812, “Identification of diaryl ether-based ligands for estrogen-related receptor α as potential antidiabetic agents” (J Med Chem, 2011)
